The source of these data is patent US20050026984A1, “Substituted thieno [2,3-c] pyrazoles and their use as medicinal products” (Aventis Pharma S.A., priority 2003, published 2005).

Each structure is given as a SMILES string.

For orientation: melting point means the temperature of the solid-liquid transition.

As for `O=C(O)c1cc2c(-c3ccccc3)n[nH]c2s1` [Example 1, 3-phenyl-1H-thieno[2,3-c]pyrazole-5-carboxylic acid], the melting point was found to be 142 °C.
